# Results: paper PMC9529664 (Current Research in Food Science, 2022)
# pIC50: −log10 of the molar value. Residues, ends and D or L forms follow the SMILES beside them.
# Target: DPP-IV enzyme (Homo sapiens, UniProt P27487)
# Assay: biochemical
# DPP-IV enzyme, sequence (P27487 whole entry, species assumed): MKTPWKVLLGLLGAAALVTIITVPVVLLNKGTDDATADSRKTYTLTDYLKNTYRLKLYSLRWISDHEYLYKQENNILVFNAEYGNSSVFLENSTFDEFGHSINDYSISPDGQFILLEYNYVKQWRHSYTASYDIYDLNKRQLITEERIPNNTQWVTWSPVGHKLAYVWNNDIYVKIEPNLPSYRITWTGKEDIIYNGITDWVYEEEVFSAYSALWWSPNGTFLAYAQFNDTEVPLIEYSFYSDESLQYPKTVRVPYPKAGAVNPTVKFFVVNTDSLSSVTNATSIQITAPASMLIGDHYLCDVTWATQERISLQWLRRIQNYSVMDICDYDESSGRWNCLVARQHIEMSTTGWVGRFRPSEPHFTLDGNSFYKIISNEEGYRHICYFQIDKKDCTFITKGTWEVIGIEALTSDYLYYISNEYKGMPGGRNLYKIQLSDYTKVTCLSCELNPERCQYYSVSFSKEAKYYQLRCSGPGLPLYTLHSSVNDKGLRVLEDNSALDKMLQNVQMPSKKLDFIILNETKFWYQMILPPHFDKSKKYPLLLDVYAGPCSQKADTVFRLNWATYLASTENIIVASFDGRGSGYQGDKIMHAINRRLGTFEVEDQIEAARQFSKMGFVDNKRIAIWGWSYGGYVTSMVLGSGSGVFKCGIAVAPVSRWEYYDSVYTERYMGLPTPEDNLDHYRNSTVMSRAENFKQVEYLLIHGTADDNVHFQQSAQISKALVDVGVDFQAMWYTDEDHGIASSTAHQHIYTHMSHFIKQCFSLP
row,Structure (SMILES),pIC50
1,CC[C@H](C)[C@H](N)C(=O)N1CCC[C@H]1C(=O)N[C@@H](Cc1c[nH]cn1)C(=O)N[C@@H](CCC(=O)O)C(=O)N[C@@H](CO)C(=O)N[C@H](C(=O)N[C@@H](CC(=O)O)C(=O)N[C@H](C(=O)N[C@H](C(=O)N[C@@H](CCCCN)C(=O)O)[C@@H](C)CC)C(C)C)C(C)C [D22] (H-IPHESVDVIK-OH),2.57
2,CC(C)[C@H](NC(=O)[C@H](C)NC(=O)[C@H](CCC(=O)O)NC(=O)[C@H](C)NC(=O)[C@@H]1CCCN1C(=O)[C@@H](N)CCC(=O)O)C(=O)NCC(=O)N[C@@H](CC(=O)O)C(=O)N[C@@H](Cc1c[nH]c2ccccc12)C(=O)N[C@@H](CCCNC(=N)N)C(=O)O [D37] (H-EPAEAVGDWR-OH),4.00
3,C[C@@H](O)[C@H](NC(=O)[C@H](CC(N)=O)NC(=O)CNC(=O)[C@H](Cc1ccccc1)NC(=O)[C@@H]1CCCN1)C(=O)N[C@@H](Cc1c[nH]cn1)C(=O)N[C@@H](CC(N)=O)C(=O)N[C@@H](CC(N)=O)C(=O)N[C@@H](Cc1ccccc1)C(=O)N[C@@H](CCCCN)C(=O)O [D1] (H-PFGNTHNNFK-OH),2.07
4,CSCC[C@H](NC(=O)[C@H](Cc1c[nH]cn1)NC(=O)[C@H](CC(N)=O)NC(=O)[C@H](CC(N)=O)NC(=O)[C@H](Cc1c[nH]cn1)NC(=O)[C@H](CCCCN)NC(=O)[C@H](CO)NC(=O)[C@H](CC(C)C)NC(=O)[C@H](CC(=O)O)NC(=O)[C@@H]1CCCN1)C(=O)O [D35] (H-PDLSKHNNHM-OH),2.41
